Measured values reported in paper PMC9863266, “Preclinical Studies and Drug Combination of Low-Cost Molecules for Chagas Disease” (Pharmaceuticals, 2022).
pIC50: −log10 of the molar value. Several values for one entry are separate records, joined by “and”; a condition that tells them apart may be missing. Identical values can stand only once.

Assays:
[1] = test system: Salmonella typhimurium strains TA98, T100, T102, TA1535, and TA1537; assay: Ames test (mutagenicity); type: cell-based; conditions: for Ames test TA98 revertant colonies / Ames test TA100 revertant colonies / Ames test TA102 revertant colonies / Ames test TA1535 revertant colonies / Ames test TA1537 revertant colonies: absence of metabolic activation
Description: The mutagenic capacity of the compounds was determined from a 2 × 10^9 CFU/mL culture in Oxoid No. 2 medium in the exponential phase of Salmonella typhimurium strains TA98, T100, T102, TA1535, and TA1537 (hisD3052, histidine-dependent). Five serial dilutions to the third in DMSO were evaluated, starting from the maximum non-toxic dose estimated from the results of the toxicity test carried out initially. Positive controls were performed with 4-nitro-o-phenylenediamine (20 µg/plate) in the case of mutagenicity without activation. DMSO (50 µL/plate) and phenotype control (resistance to ampicillin, tetracycline, crystal violet, and sensitive UV light) were used as negative control. Compounds were incubated for 1 h at 37 °C in 2 mL of an agar solution containing 200 µL of histidine solution [(0.5 mM)/biotin (0.5 mM)]. It was then grown on glucose minimal agar for 48 h at 37 °C. When the effect of the metabolization on the compounds was studied, the S9 fraction (Gibco™, Thermo Fisher Scientific, Grand Island, NY, US) […] and expressed as the mean of duplicates ± standard deviation. The product was considered mutagenic when the number of revertant colonies doubled that of the negative control in at least two consecutive doses. The preparation of the bacterial suspension, the dissolution of the S9 fraction, the product, and the first part of the test (until the tubes with all the solutions were transferred to the stove for incubation) was carried out under sterile conditions, in a laboratory laminar flow and with sterile material (autoclave at 121 °C for 20 min or maintaining the manufacturer’s sterility). The addition of the histidine/biotin solution and the seeding of the plates were carried out under an upward air current generated by a burner.

[2] = test system: zebrafish embryos
Description: 1-Phenyl-2-thiourea (0.003%) was added to system water to inhibit melanogenesis in embryos destined for microscopic imaging. The eggs were collected, and the unfertilized ones were discarded. […] At this stage, the membrane that protects the embryo (chorion) was manually removed. This was completed on a 1 % agarose plate and medium for embryos. Two 96-well plates with a curved bottom were prepared. […] One embryo was placed per […], and it was verified that it had not suffered any injury when it was transferred. After preparing the plates, the embryos were evaluated. For this, they were placed in a humid chamber to avoid the evaporation of the compounds and were incubated at 28 °C. At 24 h, the first observation was made and half of the medium in each well was replaced to ensure that the concentrations remained constant during the 96 h of exposure. To do this, 100 µL of medium was removed from each well and replaced with 100 µL of fresh medium. […] In addition, any other type of abnormality that may indicate teratogenicity was recorded. The same was performed every 24 h until 96 h of exposure where the test was considered finished. The embryos were sacrificed in 70% ethanol. […] The curve obtained was fitted to a sigmoid using the OriginLab 8.5 program.

[3] = Acute oral toxicity in mice (Up and Down test); type: in vivo; conditions: CD1 and Balb/c, mouse, in vivo; oral, microemulsion
Description: (§1) After verifying, through the studies indicated above, the low in vitro and in vivo toxicity and the potent trypanosomicidal activity of these molecules and following the steps of preclinical drug development, the acute oral toxicity in vivo in mice was tested. For this study, the compounds were administered orally in the same microemulsion that was used in the pharmacological study on the acute model of Chagas disease. The initial number of animals is defined by the software AOT425 Stat and also depends on if there are LD50 of compounds with similar structures. Variable numbers of animals could be used if there is some toxicity observed during the first administrations. […]. In this case, one of the animals died 10 days post-administration. The LD50 calculated by the statistical program from these experiments was 2000 mg/kg b.w., the maximal dose being used for oral administration. As a result, compound 793 has low acute toxicity in these conditions. For compound 1019, a maximum dose of 2000 mg/kg b.w. was started orally in five mice until one of the ends of the trial criteria was met. […] Throughout the test, during the 14 days, the mice were evaluated by the Irwin test and their masses were recorded. […]

[4] = test system: CD1 and Balb/c mice; assay: Acute oral toxicity in mice (Up and Down test); type: in vivo; conditions: 14 days
Description: as §1

[5] = test system: T. cruzi epimastigotes; conditions: read-out: In vitro anti-T. cruzi activity (multiple strains) (IC50); cited from earlier work
[6] = test system: T. brucei; set-up: method as in earlier work; conditions: read-out: In vitro anti-T. brucei activity (IC50); cited from earlier work

For O=C(/C=C/C=C/c1ccco1)/C=C/C=C/c1ccco1 [Compound 793], the “Ames test (mutagenicity)” value [1] was “NO”, the “Ames test TA98 revertant colonies” value ([1]; 6 μg/plate) was 5±2 and the “Ames test TA100 revertant colonies” value ([1]; 6 μg/plate) was 89±3. The “Ames test TA102 revertant colonies” value ([1]; 6 μg/plate) was 171±1, the “Ames test TA1535 revertant colonies” value ([1]; 6 μg/plate) was 8±1 and the “Ames test TA1537 revertant colonies” value ([1]; 6 μg/plate) was 16 ± 1. For the same molecule, the “Ames test TA98 revertant colonies” value ([1]; 18 μg/plate) was 9±3, the “Ames test TA100 revertant colonies” value ([1]; 18 μg/plate) was 76±5 and the “Ames test TA102 revertant colonies” value ([1]; 18 μg/plate) was 176±1. The “Ames test TA1535 revertant colonies” value ([1]; 18 μg/plate) was 12±1, the “Ames test TA1537 revertant colonies” value ([1]; 18 μg/plate) was 18±1 and the “Ames test TA98 revertant colonies” value ([1]; 55 μg/plate) was 3±1. The “Ames test TA100 revertant colonies” value ([1]; 55 μg/plate) was 74±6, the “Ames test TA102 revertant colonies” value ([1]; 55 μg/plate) was 194±3 and the “Ames test TA1535 revertant colonies” value ([1]; 55 μg/plate) was 14± 3. For the same molecule, the “Ames test TA1537 revertant colonies” value ([1]; 55 μg/plate) was 24± 4, the “Ames test TA98 revertant colonies” value ([1]; 166 μg/plate) was 3 ± 1 and the “Ames test TA100 revertant colonies” value ([1]; 166 μg/plate) was 58±3. The “Ames test TA102 revertant colonies” value ([1]; 166 μg/plate) was 203±2, the “Ames test TA1535 revertant colonies” value ([1]; 166 μg/plate) was 18±1 and the “Ames test TA1537 revertant colonies” value ([1]; 166 μg/plate) was 28± 3. For the same molecule, the “Ames test TA98 revertant colonies” value ([1]; 500 μg/plate) was 5±1, the “Ames test TA100 revertant colonies” value ([1]; 500 μg/plate) was 69±1 and the “Ames test TA102 revertant colonies” value ([1]; 500 μg/plate) was 222±6. The “Ames test TA1535 revertant colonies” value ([1]; 500 μg/plate) was 20±1, the “Ames test TA1537 revertant colonies” value ([1]; 500 μg/plate) was 30 ± 3 and the “Teratogenicity in zebrafish (LD50 ± SD)” value ([2]; 96 h exposure) was 22 µM and 22 ± 5 µM. The “Selectivity: zebrafish LD50 versus IC50 in the parasite” value ([2]; zebrafish, in vivo) was “four”, the LD50 at 14 days [3] was 2000 mg/kg and the “Signs of acute toxicity (Irwin test, body mass)” value [4] was “did not show signs of acute toxicity”. The pIC50 [5] was 5.30 and the pIC50 [6] was 4.77.
